Data published in the supplement of paper PMC5908809.

Key:
[1] = tested on: normal NK cells expanded with K562-aAPC; test: drug sensitivity score (DSS) (DSS units); higher = more sensitive; extreme values may be limits of the assay; conditions: 72 h; IL-2 2.5 ng/mL
Protocol: (§1)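 Drug sensitivity and resistance testing on K562-aAPC-expanded normal NK cells: 5 concentrations (10-fold steps over a 10,000-fold range), 72 h at 37 °C, viability by CellTiter-Glo normalised to DMSO and benzethonium chloride controls; DSS from the fitted curve.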

[2] = tested on: normal NK cells expanded with K562-aAPC; test: percent inhibition of viability; higher = more inhibition; conditions: 72 h, IL-2 2.5 ng/mL
Protocol: as §1

[3] = tested on: normal primary NK cells, pool 2 (3 donors) (IL-2 2.5 ng/mL); test: drug sensitivity score (DSS) (DSS units); higher = more sensitive; extreme values may be limits of the assay; conditions: 72 h
[4] = tested on: NKL (IL-2 2.5 ng/mL); test: as above; conditions: 72 h
[5] = tested on: NK-92 (IL-2 2.5 ng/mL); test: as above; conditions: 72 h
[6] = tested on: normal primary NK cells, pool 3 (3 donors) (IL-2 2.5 ng/mL); test: as above; conditions: 72 h
[7] = tested on: YT (IL-2 2.5 ng/mL); test: as above; conditions: 72 h
[8] = tested on: NK-YS (IL-2 2.5 ng/mL); test: as above; conditions: 72 h
[9] = tested on: normal primary NK cells, pool 1 (3 donors) (IL-2 2.5 ng/mL); test: as above; conditions: 72 h
[10] = tested on: IMC-1 (IL-2 20 ng/mL); test: as above; conditions: 72 h
[11] = tested on: DERL-7 (IL-2 2.5 ng/mL); test: as above; conditions: 72 h
[12] = tested on: normal primary NK cells, pool 1 (3 donors), resting (IL-2 0 ng/mL); test: as above; conditions: 72 h
[13] = tested on: KHYG-1 (IL-2 2.5 ng/mL); test: as above; conditions: 72 h
[14] = tested on: KAI3 (IL-2 2.5 ng/mL); test: as above; conditions: 72 h
[15] = tested on: SNK-6 (IL-2 2.5 ng/mL); test: as above; conditions: 72 h
[16] = tested on: normal primary NK cells, pool 2 (3 donors) (IL-2 2.5 ng/mL); test: percent inhibition of viability; higher = more inhibition; conditions: 72 h
[17] = tested on: NKL (IL-2 2.5 ng/mL); test: as above; conditions: 72 h
[18] = tested on: NK-92 (IL-2 2.5 ng/mL); test: as above; conditions: 72 h
[19] = tested on: normal primary NK cells, pool 3 (3 donors) (IL-2 2.5 ng/mL); test: as above; conditions: 72 h
[20] = tested on: YT (IL-2 2.5 ng/mL); test: as above; conditions: 72 h
[21] = tested on: NK-YS (IL-2 2.5 ng/mL); test: as above; conditions: 72 h
[22] = tested on: normal primary NK cells, pool 1 (3 donors) (IL-2 2.5 ng/mL); test: as above; conditions: 72 h
[23] = tested on: IMC-1 (IL-2 20 ng/mL); test: as above; conditions: 72 h
[24] = tested on: DERL-7 (IL-2 2.5 ng/mL); test: as above; conditions: 72 h
[25] = tested on: normal primary NK cells, pool 1 (3 donors), resting (IL-2 0 ng/mL); test: as above; conditions: 72 h
[26] = tested on: KHYG-1 (IL-2 2.5 ng/mL); test: as above; conditions: 72 h
[27] = tested on: KAI3 (IL-2 2.5 ng/mL); test: as above; conditions: 72 h
[28] = tested on: SNK-6 (IL-2 2.5 ng/mL); test: as above; conditions: 72 h

COC1=CC(c2cc3ccccc3[nH]2)=N/C1=C\c1[nH]c(C)cc1C [Obatoclax] (max concentration tested 10000 nM)
Conditions | drug sensitivity score
[1] | 1.2
[3] | 2.84
[4] | 15.6
[5] | 11.6
[6] | 2.91
[7] | 5.06
[8] | 2.34
[9] | 3.07
[10] | 1.04
[11] | 2.1
[12] | 4.87
[13] | 3.67
[14] | 4.2
[15] | 0.94

percent inhibition of viability [%]
Conditions | 1 nM | 10 nM | 100 nM | 1000 nM | 10000 nM
[2] | 0.42 | 2.59 | 3.2 | 6.46 | 21.2
[16] | -4.7 | -5.9 | 5.89 | 6.17 | 37.3
[17] | -2.53 | -11.6 | 25.5 | 67.5 | 84.2
[18] | -5.85 | 7.72 | 16.4 | 50 | 77.5
[19] | -3.41 | -11.5 | 3.42 | 9.76 | 34.5
[20] | 0.99 | 0.48 | 1.63 | 21.2 | 48.1
[21] | -4.05 | -1.77 | 1.63 | 13.8 | 26.2
[22] | -0.48 | 0.81 | -4.45 | 6.95 | 39.1
[23] | -4.53 | -1.62 | -0.16 | 4.8 | 18.5
[24] | -3.53 | -2.23 | 2.25 | 2.35 | 36.5
[25] | -9.87 | -1.78 | -10.3 | 10 | 59
[26] | -3.69 | -0.55 | 0.4 | 15.8 | 35.2
[27] | 2.78 | 2.46 | -1.6 | 14.8 | 41.8
[28] | -0.44 | 6.97 | -8.81 | 6.17 | 16.6

C[C@]1(O)C[C@@H](c2nc(-c3ccc4ccc(-c5ccccc5)nc4c3)c3c(N)nccn32)C1 [Linsitinib] (max concentration tested 10000 nM)
Conditions | drug sensitivity score
[1] | 0
[3] | 1.67
[4] | 0.01
[5] | 3.33
[6] | 0.23
[7] | 0.72
[8] | 0
[9] | 0.79
[10] | 0
[11] | 0
[12] | 3.19
[13] | 0
[14] | 0
[15] | 0

percent inhibition of viability [%]
Conditions | 1 nM | 10 nM | 100 nM | 1000 nM | 10000 nM
[2] | -3.84 | -4.8 | -1.86 | -1.74 | 2.14
[16] | -2.53 | 1.1 | -5.12 | 3.42 | 27.6
[17] | -9.46 | -15.4 | -8.54 | -9.73 | 12.4
[18] | 2.33 | 5.73 | 13 | 14.5 | 29.1
[19] | -0.78 | 1.11 | 5.04 | -1.16 | 15.8
[20] | 1.95 | 2.48 | 2.32 | 5.99 | 17.4
[21] | -6.48 | -5.34 | -2.18 | 3.9 | 7.93
[22] | -5.96 | -9.98 | -7.82 | -7.33 | 27.3
[23] | -3.5 | -2.97 | -5.08 | -2.76 | -3.58
[24] | -5.4 | 6.82 | -0.65 | -2.2 | 7.81
[25] | -20.4 | -14.2 | 17.7 | 8.71 | 42.2
[26] | -4.45 | -3.38 | -4.33 | 0.38 | 8.9
[27] | 6.27 | -1.21 | -4.49 | -3.92 | -0.2
[28] | 5.21 | -12.6 | -15.2 | -16.7 | -11

COc1ccc(CCc2nc3cc(-c4c(C)noc4C)ccc3n2C[C@H](C)N2CCOCC2)cc1Cl [SGC-CBP30] (max concentration tested 25000 nM)
Conditions | drug sensitivity score
[1] | 5.98
[3] | 8.45
[4] | 10.4
[5] | 2.67
[6] | 5.27
[7] | 5.56
[8] | 6.98
[9] | 9.22
[10] | 1.04
[11] | 13.3
[12] | 7.45
[13] | 8.22
[14] | 2.09
[15] | 2.41

percent inhibition of viability [%]
Conditions | 2.5 nM | 25 nM | 250 nM | 2500 nM | 25000 nM
[2] | -5.48 | -4.45 | -3.35 | 8.12 | 84.2
[16] | -5.14 | -1.93 | 8.85 | 24.7 | 90.1
[17] | 0.5 | 1.11 | 1.38 | 53.1 | 72.8
[18] | -16.2 | -20.5 | -26.2 | -17.7 | 64.4
[19] | -5.75 | -3.57 | 2.2 | 8.83 | 68.9
[20] | -1.31 | -7.71 | -7.11 | 10.1 | 70
[21] | -1.97 | -5.16 | 0.38 | 22.5 | 67.9
[22] | -4.81 | 2.68 | 13 | 33.8 | 96.6
[23] | -7.53 | -9.31 | -8.36 | -20.2 | 35.3
[24] | 0.1 | 3.95 | 12.3 | 60.5 | 96.1
[25] | 18.2 | 2.19 | 20.6 | 19.9 | 86
[26] | -1.44 | -8.58 | -1.59 | 16.4 | 99.4
[27] | 1.53 | -3.88 | -18.5 | -12.8 | 51.8
[28] | -3.48 | -9.35 | 6.99 | 15.5 | 20.9
